Measured values: patent US8293231B2, “Methods and compositions for treating ischemia” (Blue Blood Biotech Corp., priority 2005, dated 2012)
Entries after “also recorded” stand apart in the source; their conditions may differ.

Experiments:
[1] = Thrombomodulin activity assay (cofactor activity for thrombin-dependent protein C activation); assay type: biochemical
Method: (§1) Cofactor activity of TMD2 and TMD23 for thrombin-dependent protein C activation was measured as described previously. Huang H C., et al Thrombomodulin-mediated cell adhesion: Involvement of its lectin-like domain. J Biol. Chem. 2003; 278:46750-46759.
(§2) Cofactor activity of TMD2 and TMD23 for thrombin-dependent protein C activation was measured as described previously. Huang H C., et al Thrombomodulin-mediated cell adhesion: Involvement of its lectin-like domain. J Biol. Chem. 2003; 278: 46750-46759.

[2] = target: thrombin-dependent protein C activation (Homo sapiens, UniProt P00734); test: as above; assay type: biochemical; settings: on an equal molar basis
Method: as §1, §2

[3] = system: human umbilical vein endothelial cells (HUVECs); test: Cell proliferation assay (BrdU incorporation); assay type: cell-based
Method: (§3) To evaluate the effect of TMD proteins on DNA synthesis in human umbilical vein endothelial cells (HUVECs), we performed a 5-bromo-2′-deoxyuridine (BrdU) incorporation assay with a commercial quantification kit (Roche Diagnostic GmbH) and manufacturer's protocol. Mitogenic effects induced by TMD proteins were also determined in the presence of polyclonal rabbit anti-TMD23 antibody (prepared by GlycoNex, Inc., Taiwan) that was purified by protein G-Sepharose column (Amersham Pharmacia Biotech AB).
as §3, with “(HUVECs),” for “(HUVECs), we performed”, “assay were performed” for “assay”

[4] = system: PAI activity in conditioned media of HUVECs; test: Plasminogen activator inhibitor (PAI) activity assay; assay type: cell-based, human; settings: 12 h; 100 or 1000 ng/mL TMD23, 70 ng/mL PMA, 10 ng/mL VEGF
Method: (§4) HUVECs were seeded at 80% confluence on 100-mm dishes in M199 medium. After 24 h, cells were rinsed with serum-free M199 twice and incubated in serum-free M199 with various concentrations of TMD23, VEGF (10 ng/mL), or PMA (70 ng/mL) for 12 h. The conditioned medium containing […] secreted proteins was analyzed by gelatin- and casein-based zymographies. The digested area appeared clear on a blue background, indicating the location of matrix metalloproteinase (MMP) activity. To further verify MMP caseinolytic activity, the casein-containing gel was incubated with incubation buffer containing 10 mM EDTA, an inhibitor of MMPs, to observe disappearance of the clear band. Plasminogen activator inhibitor (PAI) activity was measured by titrating samples with increasing amounts of tissue-type plasminogen activator (t-PA) (Boehringer Ingelheim) into a fixed volume of endothelial-cell-conditioned media.
as §4, with “zymographies. Lee O H, et al., Identification of angiogenic properties of insulin-like growth factor II in in vitro angiogenesis models. Brit J. Cancer. 2000; 82:385-391.” for “zymographies.”, “media. Shi G Y., et al., Plasmin and the regulation of tissue-type plasminogen activator biosynthesis in human endothelial cells. […]” for “media.”

[5] = system: HUVECs; test: In vitro Matrigel angiogenesis assay (tube formation); assay type: cell-based, human
Method: (§5) Growth-factor-reduced Matrigel (BD Biosciences) was thawed at 4° C. A total of 200 μL Matrigel was added to wells of a 48-well plate and polymerized 30 min at 37° C. Two hundred μL cell suspension containing various concentrations of VEGF, TMD23, or TMD23 in the presence of polyclonal rabbit anti-TMD23 antibody (10 μg/mL) or various signaling pathway inhibitors were plated onto Matrigel-coated wells at a density of 2.4×10^4 cells/well in M199 containing 10% FBS for 24 h at 37° C. in a 5% CO2 humidified atmosphere. Each concentration was tested in triplicate in the same plate, with wells photographed using a Leica camera (40× magnification). Tube length was quantified by measuring tubes in five randomly chosen fields from each well using MetaMorph software. Experiments were repeated at least three times.
as §5, with “5° k” for “5%”

[6] = system: human melanoma A2058 cells in Matrigel; test: Effect of TMD23 on tumor neoangiogenesis; assay type: in vivo, athymic nude mice
Method: To assess TMD23 effects on tumor neoangiogenesis, 1×10^6 human melanoma A2058 cells (ATCC® CRL-11147) were mixed with Matrigel (0.5 mL) containing heparin (60 U/mL) and various concentrations of TMD23 and subcutaneously injected into athymic nude mice. Matrigel plugs were harvested after 18 days and frozen in liquid nitrogen. Blood vessels were detected by immunohistochemistry using anti-CD31 antibody as described above. Microvessel density (MVD) was calculated by counting six highly vascularized fields in each section (200× magnification; MetaMorph software).

TMD23: Recombinant human thrombomodulin fragment, amino acids Ala242-Ser515 of SEQ ID NO: 2: six EGF-like structures (D2) plus Ser/Thr-rich domain D3
Cofactor activity for thrombin-dependent protein C activation [1]: 2,650 pmol of APC formed/min/mg TMD23 | Cofactor activity higher than that of TMD2 [2]: 25% | Stimulation of HUVEC proliferation ([3]; 4.5 nM (150 ng/mL)): roughly two-fold | DNA synthesis in HUVECs ([3]; BrdU incorporation, FIG. 2A): stimulated DNA synthesis | Mitogenic activity / stimulation of HUVEC proliferation compared with TMD2 ([3]; FIG. 2A): higher mitogenic activity than TMD2; also recorded: more effective than TMD2 | PAI activity in conditioned media of HUVECs [4]: decreased significantly | HUVEC tube formation on Matrigel ([5]; 24 h, VEGF 10 ng/mL, TMD23 5 to 250 ng/mL): formed elongated capillary-like structures, with complete networks | Tubule length per well ([5]; FIG. 5G): stimulated tube formation in dose-dependent manner | Blood vessels in Matrigel plugs (CD31 staining) ([6]; 18 days): significantly more blood vessels | Weight of tumor contained in a Matrigel plug ([6]; FIG. 8A): increased the weight of tumor | Microvessel density (MVD) ([6]; FIG. 8C): increased microvessel density | Tumor size developed by Matrigel plugs containing A2058 cells ([6]; compared with A2058 cells alone, 18 days): bigger
